Where “and” joins values, the source holds several entries; their conditions need not be identical. Equal values may be shown once.
What was measured:
[1] = target: T1, rat α1β1δε nAChR (Rattus norvegicus, UniProt P09660+P25108+P25109+P25110); assay: Ca2+ flux (FLIPR) agonist/antagonist assay; assay type: cell-based; settings: FLIPR antagonist mode, EC90 ACh
T1 construct: expressed in transfected cells; host or cells: HEK293 (made by Bristol-Myers Squibb)

[2] = target: T2, rat α3β4 nAChR (Rattus norvegicus, UniProt P04757+P12392); assay: Ca2+ flux (FLIPR) agonist/antagonist assay; assay type: cell-based; settings: FLIPR antagonist mode, EC90 ACh
T2 construct: expressed in transfected cells; host or cells: HEK293 (made by Bristol-Myers Squibb)
T2 sequence (P04757 26-499): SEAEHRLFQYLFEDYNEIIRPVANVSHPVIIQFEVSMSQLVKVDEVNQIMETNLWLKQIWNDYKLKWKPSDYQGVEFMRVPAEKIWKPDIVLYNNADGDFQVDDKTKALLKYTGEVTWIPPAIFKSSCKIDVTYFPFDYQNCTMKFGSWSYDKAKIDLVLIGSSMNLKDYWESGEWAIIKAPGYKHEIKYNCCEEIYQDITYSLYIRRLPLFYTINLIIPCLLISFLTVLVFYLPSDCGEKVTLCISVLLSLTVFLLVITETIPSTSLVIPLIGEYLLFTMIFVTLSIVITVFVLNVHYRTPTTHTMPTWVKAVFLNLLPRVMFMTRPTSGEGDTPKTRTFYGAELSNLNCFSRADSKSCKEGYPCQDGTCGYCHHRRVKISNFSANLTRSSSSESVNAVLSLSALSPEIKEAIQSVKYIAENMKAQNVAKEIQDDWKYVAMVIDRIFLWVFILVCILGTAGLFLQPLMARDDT
T2 sequence (P12392 21-495): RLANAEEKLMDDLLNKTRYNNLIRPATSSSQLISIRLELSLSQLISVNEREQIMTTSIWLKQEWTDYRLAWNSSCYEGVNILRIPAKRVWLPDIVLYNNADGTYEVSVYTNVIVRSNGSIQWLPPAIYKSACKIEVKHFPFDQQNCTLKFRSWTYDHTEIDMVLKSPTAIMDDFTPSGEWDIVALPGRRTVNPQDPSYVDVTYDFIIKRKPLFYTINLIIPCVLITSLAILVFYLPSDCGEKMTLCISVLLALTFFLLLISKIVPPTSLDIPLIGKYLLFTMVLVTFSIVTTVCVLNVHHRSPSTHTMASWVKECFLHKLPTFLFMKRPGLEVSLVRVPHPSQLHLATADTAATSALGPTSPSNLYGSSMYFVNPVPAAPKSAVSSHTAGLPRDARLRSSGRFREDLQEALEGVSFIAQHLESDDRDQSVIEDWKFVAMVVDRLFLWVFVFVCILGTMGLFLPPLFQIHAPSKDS

[3] = target: T3, rat α4β2 nAChR (Rattus norvegicus, UniProt P09483+P12390); assay: Ca2+ flux (FLIPR) agonist/antagonist assay; assay type: cell-based; settings: FLIPR antagonist mode, EC90 ACh
T3 construct: expressed in transfected cells; host or cells: HEK293 (made by Bristol-Myers Squibb)

[4] = target: T4, HEK293/Human 5-HT3A (Homo sapiens, UniProt P46098); assay: Ca2+ flux (FLIPR) 5-HT3A antagonist assay; assay type: cell-based
T4 construct: expressed in transfected cells; host or cells: HEK293 (made by Bristol-Myers Squibb)
T4 sequence (P46098 24-478): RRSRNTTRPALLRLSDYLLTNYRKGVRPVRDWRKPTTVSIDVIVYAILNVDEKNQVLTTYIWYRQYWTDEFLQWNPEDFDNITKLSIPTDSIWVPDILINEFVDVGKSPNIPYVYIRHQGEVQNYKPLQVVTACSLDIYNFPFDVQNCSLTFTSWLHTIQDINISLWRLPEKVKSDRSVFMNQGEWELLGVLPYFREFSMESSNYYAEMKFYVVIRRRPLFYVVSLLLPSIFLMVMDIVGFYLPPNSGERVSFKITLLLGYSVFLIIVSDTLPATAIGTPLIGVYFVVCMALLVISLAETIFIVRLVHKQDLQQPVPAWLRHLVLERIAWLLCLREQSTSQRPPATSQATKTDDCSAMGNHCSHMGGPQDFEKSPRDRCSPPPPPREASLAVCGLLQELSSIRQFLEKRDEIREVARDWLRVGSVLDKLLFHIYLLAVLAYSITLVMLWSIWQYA
Experimental: Functional activity was examined using Ca^2+-sensitive, dye-based, microfluorometric assays read on the FLIPR Tetra plate reader platform (Molecular Devices, CA, USA). Cells were plated in 384-well black, clear-bottomed Greiner poly-D-lysine coated plates at a density of ~25 K cells/well and incubated at 29°C for 48 h. Prior to assay, media contents were removed and cells incubated in assay buffer containing 5μM final Fluo-4 dye for 90 min. For nAChR assays, the dye-loading buffer was HBSS (#14175 Life Technologies) supplemented with 20 mM HEPES, 0.5 mM CaCl2, 1 mM MgCl2 and 10 μM atropine (final concentration). Test compounds were solubilized in DMSO and serially diluted in NUNC 384-well plates prior to addition of assay buffer (5.3 mM KCl + 140 mM NaCl + 20 mM Hepes + 25 mM CaCl2 + 1 mM MgCl2 + 10 μM atropine final concentration). Compounds diluted in assay buffer were added to the assay plate by the FLIPR and read for approximately 2 min. […] For 5-HT3A antagonist studies, the dye loading and compound diluent buffer was HBSS (#14025 Life Technologies) supplemented with 20 mM HEPES (final concentration) and the concentration of 5-HT used in the assay was 2 μM. Offline transformation of concentration response data was done using a 4 parameter logistic fit using a Bristol-Myers Squibb proprietary informatics software suite.

[5] = target: T5, HEK293/human α7 nAChR cells (Homo sapiens, UniProt P36544); assay: Whole cell voltage clamp electrophysiology; assay type: cell-based; settings: for Net Charge (Current Area) normalized to 300 µM ACh / Peak Current normalized to 3 mM ACh: individual cells
T5 construct: expressed in transfected cells
T5 sequence (P36544 23-502): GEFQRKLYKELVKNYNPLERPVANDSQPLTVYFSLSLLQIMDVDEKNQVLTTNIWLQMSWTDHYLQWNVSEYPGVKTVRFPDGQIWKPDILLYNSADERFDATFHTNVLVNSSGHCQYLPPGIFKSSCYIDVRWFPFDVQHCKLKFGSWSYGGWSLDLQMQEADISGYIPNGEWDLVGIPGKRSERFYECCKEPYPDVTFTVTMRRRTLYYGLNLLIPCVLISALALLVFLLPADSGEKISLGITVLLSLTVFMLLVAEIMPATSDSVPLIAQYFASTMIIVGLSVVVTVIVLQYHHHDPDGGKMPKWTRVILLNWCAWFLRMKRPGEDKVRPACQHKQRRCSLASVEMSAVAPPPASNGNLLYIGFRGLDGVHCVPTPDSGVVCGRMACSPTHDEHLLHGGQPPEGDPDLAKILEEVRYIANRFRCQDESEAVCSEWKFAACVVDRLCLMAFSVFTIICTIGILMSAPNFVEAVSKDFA
Experimental: Whole-cell voltage clamp studies were conducted on HEK293/rat α7 or HEK293/human α7 nAChR cells. […] Atropine (1 μM) was included in the bathing solution. […] Cells were voltage clamped at a holding potential of -90 mV. Using the Dynaflow microfluidic perfusion system (Cellectricon; flow 26 μl/min) responses to a 300 ms application of ACh or α7 nAChR agonists were measured. Currents were filtered at 2 kHz and sampled at 10 kHz using an EPC-9 amplifier and HEKA Pulse/Patchmaster software. […] The peak current amplitude and net charge crossing the membrane (i.e. the area under the current response curve) induced by agonist application were measured using Clampfit (pClamp Suite) and normalized to the maximal response induced by ACh (3 mM ACh for peak current amplitude and 300 μM ACh for net charge).

[6] = system: C57Bl/6 mice; assay: Mouse 24 h novel object recognition; assay type: in vivo
Experimental: The procedure followed a 3 day protocol. On day 1 (habituation) individual mice were habituated to the testing chamber (a white PVC box 48 cm long x 38 cm wide x 20 cm high with brown linoleum flooring) for 15 min then returned to their home cage. On day 2 (training) individual mice were returned to the testing chamber containing 2 identical objects and allowed to explore. The training session lasted for up to 15 min or until the mouse explored the objects for a total of 60 s. A maximal trial duration of 15 min was used to accommodate mice that are slower to initiate exploration. On day 3 (testing) individual mice were returned to the testing chamber 24 h later containing 1 familiar object encountered in the previous training session and one novel object. The testing session lasted up to 10 min or until the mouse explored the objects for a total of 60 s. The objects used for these studies were made of duplex legos approximately 3 inches high x 1 inch wide; one object was a multicolored rectangle and the second object was a solid color rectangle with a short arm attached. The location of the objects was counterbalanced between animals but was consistent within animals so that only the object itself was novel on the test session. The familiar object used during the test session was the same object used during training and all objects were thoroughly cleaned between sessions and between subjects. Animal behavior was video recorded during both training and testing and the amount of time spent exploring the objects determined using Cleversys software. Object exploration was only scored when the animal’s nose was within 1 cm of the object. […] The vehicle was chosen for sc dosing to ensure that BMS-933043 was dosed as a solution and not a suspension. […] For each subject the % discrimination index (DI) was calculated for both the training and test session as follows: %DI training = (time exploring object 1—time exploring object 2)/(total time exploring object 1 + object 2) X 100; %DI testing = (time exploring novel object—time exploring familiar object)/(total time exploring novel + familiar object) X 100.

[7] = target: Adenosine A2a (Homo sapiens, UniProt P29274); assay: Selectivity panel, binding
Sequence of Adenosine A2a (P29274 whole entry): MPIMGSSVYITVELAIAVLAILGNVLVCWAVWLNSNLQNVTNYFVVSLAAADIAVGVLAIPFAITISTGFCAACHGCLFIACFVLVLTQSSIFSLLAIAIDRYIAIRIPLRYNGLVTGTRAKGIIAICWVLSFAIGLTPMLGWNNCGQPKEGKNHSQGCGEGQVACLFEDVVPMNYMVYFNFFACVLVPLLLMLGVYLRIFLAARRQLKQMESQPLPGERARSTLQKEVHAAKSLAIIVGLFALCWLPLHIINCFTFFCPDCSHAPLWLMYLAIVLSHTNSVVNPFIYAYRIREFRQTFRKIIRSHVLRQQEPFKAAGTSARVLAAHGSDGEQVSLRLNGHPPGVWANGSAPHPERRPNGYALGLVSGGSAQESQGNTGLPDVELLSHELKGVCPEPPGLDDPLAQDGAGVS

[8] = target: Androgen receptor (Rattus norvegicus, UniProt P15207); assay: Selectivity panel, binding
Sequence of Androgen receptor (P15207 whole entry S389L): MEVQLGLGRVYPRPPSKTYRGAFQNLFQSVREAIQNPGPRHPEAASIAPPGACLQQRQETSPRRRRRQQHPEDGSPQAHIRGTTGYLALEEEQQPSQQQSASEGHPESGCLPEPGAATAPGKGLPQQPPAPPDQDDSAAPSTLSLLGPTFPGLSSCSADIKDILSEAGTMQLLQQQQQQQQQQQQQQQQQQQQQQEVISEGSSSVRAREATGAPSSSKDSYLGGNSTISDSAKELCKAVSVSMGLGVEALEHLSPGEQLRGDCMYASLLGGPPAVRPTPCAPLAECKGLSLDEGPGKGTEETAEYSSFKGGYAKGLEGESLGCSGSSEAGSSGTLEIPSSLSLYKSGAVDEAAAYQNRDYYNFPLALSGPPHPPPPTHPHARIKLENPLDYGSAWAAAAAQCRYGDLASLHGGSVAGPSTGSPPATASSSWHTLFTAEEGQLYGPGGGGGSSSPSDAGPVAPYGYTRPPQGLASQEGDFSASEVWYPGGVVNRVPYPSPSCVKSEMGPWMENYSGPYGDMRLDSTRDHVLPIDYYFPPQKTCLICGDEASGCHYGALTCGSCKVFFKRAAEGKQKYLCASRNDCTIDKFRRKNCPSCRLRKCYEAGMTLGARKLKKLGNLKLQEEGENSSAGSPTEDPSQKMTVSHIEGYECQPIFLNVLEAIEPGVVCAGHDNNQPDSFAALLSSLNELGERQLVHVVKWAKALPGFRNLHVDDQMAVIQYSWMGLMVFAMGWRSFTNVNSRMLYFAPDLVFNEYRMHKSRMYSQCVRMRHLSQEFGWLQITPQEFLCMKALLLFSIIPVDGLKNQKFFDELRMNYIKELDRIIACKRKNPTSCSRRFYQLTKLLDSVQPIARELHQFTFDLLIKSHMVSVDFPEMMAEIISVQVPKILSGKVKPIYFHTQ

[9] = target: Dopamine D2 (Homo sapiens, UniProt P14416); assay: Selectivity panel, binding
Sequence of Dopamine D2 (P14416 whole entry): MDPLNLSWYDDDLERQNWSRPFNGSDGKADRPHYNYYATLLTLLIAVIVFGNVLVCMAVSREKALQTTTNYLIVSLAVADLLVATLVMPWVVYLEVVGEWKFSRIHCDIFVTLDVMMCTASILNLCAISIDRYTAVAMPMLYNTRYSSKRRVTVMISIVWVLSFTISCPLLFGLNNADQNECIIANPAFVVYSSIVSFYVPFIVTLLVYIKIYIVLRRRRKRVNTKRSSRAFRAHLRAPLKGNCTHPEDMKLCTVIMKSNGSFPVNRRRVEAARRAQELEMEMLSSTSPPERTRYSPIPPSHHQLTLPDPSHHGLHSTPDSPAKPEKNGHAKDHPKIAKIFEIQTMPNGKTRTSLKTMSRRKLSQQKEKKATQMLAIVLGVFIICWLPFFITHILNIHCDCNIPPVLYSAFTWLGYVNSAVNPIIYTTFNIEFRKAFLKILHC

[10] = target: Histamine H2 (Homo sapiens, UniProt P25021); assay: Selectivity panel, binding
[11] = target: NMDA NR1/2A (Homo sapiens, UniProt Q05586+Q12879); assay: Selectivity panel, functional; assay type: cell-based
Sequence of NMDA NR1/2A (Q12879 23-1464, other chains not shown): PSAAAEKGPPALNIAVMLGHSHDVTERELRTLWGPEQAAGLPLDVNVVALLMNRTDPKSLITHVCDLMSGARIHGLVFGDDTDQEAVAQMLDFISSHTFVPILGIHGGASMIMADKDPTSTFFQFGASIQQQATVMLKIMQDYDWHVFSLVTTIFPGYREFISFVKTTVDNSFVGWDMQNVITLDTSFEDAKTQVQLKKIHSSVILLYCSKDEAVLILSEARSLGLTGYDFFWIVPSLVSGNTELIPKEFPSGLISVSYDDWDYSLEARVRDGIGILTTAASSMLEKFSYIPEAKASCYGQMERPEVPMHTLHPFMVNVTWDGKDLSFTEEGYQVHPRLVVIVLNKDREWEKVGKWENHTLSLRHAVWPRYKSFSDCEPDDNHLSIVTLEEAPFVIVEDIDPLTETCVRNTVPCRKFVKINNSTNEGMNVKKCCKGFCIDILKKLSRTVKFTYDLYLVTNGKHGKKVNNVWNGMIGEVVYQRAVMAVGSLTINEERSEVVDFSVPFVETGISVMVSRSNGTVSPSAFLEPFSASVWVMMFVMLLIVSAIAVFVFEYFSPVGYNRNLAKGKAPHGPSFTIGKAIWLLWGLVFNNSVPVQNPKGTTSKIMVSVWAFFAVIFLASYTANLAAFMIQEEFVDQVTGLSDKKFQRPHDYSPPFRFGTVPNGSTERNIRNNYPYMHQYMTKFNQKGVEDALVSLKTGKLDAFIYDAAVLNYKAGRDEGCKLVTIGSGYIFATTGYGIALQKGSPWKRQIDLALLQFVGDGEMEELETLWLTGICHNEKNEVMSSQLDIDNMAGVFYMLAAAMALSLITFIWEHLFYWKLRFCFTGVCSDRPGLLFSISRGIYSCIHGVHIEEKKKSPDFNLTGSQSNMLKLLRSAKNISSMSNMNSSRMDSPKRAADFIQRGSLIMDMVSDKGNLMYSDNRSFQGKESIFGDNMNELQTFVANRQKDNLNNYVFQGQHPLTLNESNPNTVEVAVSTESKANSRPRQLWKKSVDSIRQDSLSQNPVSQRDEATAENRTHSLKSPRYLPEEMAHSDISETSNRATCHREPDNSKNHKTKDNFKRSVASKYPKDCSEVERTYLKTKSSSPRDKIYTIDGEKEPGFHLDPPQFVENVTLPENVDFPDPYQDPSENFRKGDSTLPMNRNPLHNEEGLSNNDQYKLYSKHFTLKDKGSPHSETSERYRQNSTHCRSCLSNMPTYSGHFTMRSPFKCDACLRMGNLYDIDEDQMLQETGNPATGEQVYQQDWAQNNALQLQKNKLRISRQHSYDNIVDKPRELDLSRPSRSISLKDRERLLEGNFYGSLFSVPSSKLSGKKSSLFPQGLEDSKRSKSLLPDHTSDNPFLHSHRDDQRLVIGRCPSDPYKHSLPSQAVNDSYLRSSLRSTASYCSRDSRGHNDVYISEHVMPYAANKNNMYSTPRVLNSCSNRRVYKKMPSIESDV

[12] = target: Opiate Mu (Homo sapiens, UniProt P35372); assay: Selectivity panel, binding
[13] = target: 5-HT1A (Homo sapiens, UniProt P08908); assay: Selectivity panel, binding; settings: read-out: % inhibition @ 10 µM
Sequence of 5-HT1A (P08908 whole entry): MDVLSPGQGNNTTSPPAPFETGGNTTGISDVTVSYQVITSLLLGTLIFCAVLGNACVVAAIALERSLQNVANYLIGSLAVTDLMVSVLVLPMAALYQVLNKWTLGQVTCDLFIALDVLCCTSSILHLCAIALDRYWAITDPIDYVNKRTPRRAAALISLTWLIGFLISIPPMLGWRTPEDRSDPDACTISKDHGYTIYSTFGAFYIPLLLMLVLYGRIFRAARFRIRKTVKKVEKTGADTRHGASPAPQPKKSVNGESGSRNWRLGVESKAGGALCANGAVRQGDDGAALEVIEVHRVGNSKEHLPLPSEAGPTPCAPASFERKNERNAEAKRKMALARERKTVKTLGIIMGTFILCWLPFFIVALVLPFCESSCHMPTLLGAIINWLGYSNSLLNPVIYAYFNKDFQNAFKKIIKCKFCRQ

[14] = system: 5-HT1B; assay: Selectivity panel, binding; settings: read-out: % inhibition @ 10 µM, Rat

c1cn(-c2cc(NC3=NC[C@@]4(CN5CCC4CC5)O3)ncn2)cn1 [BMS-933043, (2R)-N-(6-(1H-imidazol-1-yl)-4-pyrimidinyl)-4'H-spiro[4-azabicyclo[2.2.2]octane-2,5'-[1,3]oxazol]-2'-amine]
IC50 [1]: > 30 µM | IC50 [2]: > 30 µM | IC50 [3]: > 30 µM | IC50 ([4]; HEK293/Human 5-HT3A Mean ± SD IC50, Ca2+ flux (FLIPR), antagonism of 2 μM 5-HT): 8.07 µM | IC50 ([4]; Human 5-HT3A IC50 values (individual), FLIPR, individual determinations): 10.5 µM and 7.2 µM and 8.02 µM and 6.88 µM and 7.28 µM and 4.89 µM and 12.4 µM and 5.32 µM and 8.67 µM and 9.42 µM | EC50 [5]: 0.29 ± 0.01 µM | Net Charge (Current Area) normalized to 300 µM ACh ([5]; 0.1 µM): 0.01982 and 0.01318 and 0.03866 and 0.03782 and 0.02283 and 0.01327 and 0.03856 | Peak Current normalized to 3 mM ACh ([5]; 0.1 µM): 0.005961 and 0.006675 and 0.008382 and 0.007317 and 0.006875 and 0.005721 and 0.00606 | Net Charge (Current Area) normalized to 300 µM ACh ([5]; 0.3 µM): 0.3496 and 0.3624 and 0.3212 and 0.3215 and 0.2954 and 0.3576 and 0.4143 | Peak Current normalized to 3 mM ACh ([5]; 0.3 µM): 0.02637 and 0.02303 and 0.02389 and 0.02438 and 0.0295 and 0.03259 and 0.02737 | Net Charge (Current Area) normalized to 300 µM ACh ([5]; 1 µM): 0.6952 and 0.6304 and 0.6554 and 0.6122 and 0.619 and 0.6592 and 0.8129 | Peak Current normalized to 3 mM ACh ([5]; 1 µM): 0.05479 and 0.03294 and 0.04392 and 0.05131 and 0.08504 and 0.08024 and 0.07272 | Net Charge (Current Area) normalized to 300 µM ACh ([5]; 3 µM): 0.7025 and 0.6903 and 0.6991 and 0.888 and 0.7947 and 0.7791 and 0.7655 | Peak Current normalized to 3 mM ACh ([5]; 3 µM): 0.126 and 0.0997 and 0.1092 and 0.09913 and 0.1966 and 0.202 and 0.183 | Net Charge (Current Area) normalized to 300 µM ACh ([5]; 10 µM): 0.8035 and 0.7537 and 0.7969 and 0.7637 and 0.7224 and 0.6788 and 0.8823 | Peak Current normalized to 3 mM ACh ([5]; 10 µM): 0.217 and 0.1532 and 0.1702 and 0.1779 and 0.3334 and 0.2987 and 0.3004 | Mean ± SEM Net Charge Ymax ([5]; Human, normalized to 300 μM ACh): 0.78 ± 0.004 | Mean ± SEM Peak Current Ymaxobs @ 10 μM ([5]; Human, normalized to 3 mM ACh): 0.24 ± 0.03 | total object exploration time in training or testing session ([6]; mice): does not alter total object exploration time | effective dose range, 24 h novel object recognition ([6]; sc, 30 min prior to training): 0.1 to 10 mg/kg | IC50 [7]: > 30 µM | IC50 [8]: > 150 µM | IC50 [9]: > 30 µM | IC50 [10]: > 30 µM | IC50 [11]: > 30 µM | IC50 [12]: > 30 µM | inhibition at 10 µM [13]: 9% | inhibition at 10 µM [14]: 0%
